Values of other authors in patent US20130090323A1, “HETEROCYCLIC COMPOUNDS AND THEIR USES” (Amgen Inc., priority 2010, published 2013).

How the values were obtained:
[1] = tested on: mouse model of rheumatoid arthritis; conditions: in vivo
[2] = tested on: model of systemic lupus erythematosis; conditions: in vivo
p110δ = biological target: T1, p110δ (Homo sapiens, UniProt O00329)
T1 sequence (O00329 1-1044): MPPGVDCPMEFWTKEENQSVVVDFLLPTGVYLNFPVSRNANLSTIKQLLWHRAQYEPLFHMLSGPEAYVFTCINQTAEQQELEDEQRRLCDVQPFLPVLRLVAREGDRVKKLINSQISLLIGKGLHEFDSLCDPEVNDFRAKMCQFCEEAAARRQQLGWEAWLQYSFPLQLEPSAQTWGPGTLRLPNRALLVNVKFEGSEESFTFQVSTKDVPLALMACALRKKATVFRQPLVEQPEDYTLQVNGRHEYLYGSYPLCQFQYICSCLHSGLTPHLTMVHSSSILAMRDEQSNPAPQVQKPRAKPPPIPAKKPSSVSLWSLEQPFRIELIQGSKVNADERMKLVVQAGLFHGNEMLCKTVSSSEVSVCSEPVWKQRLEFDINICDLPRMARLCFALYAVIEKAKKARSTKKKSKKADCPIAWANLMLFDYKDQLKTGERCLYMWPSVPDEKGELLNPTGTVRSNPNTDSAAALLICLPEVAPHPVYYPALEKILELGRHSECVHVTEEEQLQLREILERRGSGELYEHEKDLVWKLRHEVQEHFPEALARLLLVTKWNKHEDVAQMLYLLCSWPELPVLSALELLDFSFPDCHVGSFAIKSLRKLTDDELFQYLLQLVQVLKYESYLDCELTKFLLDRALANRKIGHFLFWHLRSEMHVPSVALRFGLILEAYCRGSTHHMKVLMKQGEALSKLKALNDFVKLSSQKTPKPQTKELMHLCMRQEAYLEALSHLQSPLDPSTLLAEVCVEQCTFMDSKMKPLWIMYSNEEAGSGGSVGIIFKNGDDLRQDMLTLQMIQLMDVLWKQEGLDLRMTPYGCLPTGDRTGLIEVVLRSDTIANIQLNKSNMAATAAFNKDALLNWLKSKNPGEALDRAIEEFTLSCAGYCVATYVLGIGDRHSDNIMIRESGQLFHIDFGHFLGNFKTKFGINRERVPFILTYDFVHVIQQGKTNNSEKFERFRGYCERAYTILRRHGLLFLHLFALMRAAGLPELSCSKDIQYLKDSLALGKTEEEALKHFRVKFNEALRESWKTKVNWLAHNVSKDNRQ

[3] = tested on: murine model of allergic disease; conditions: absence of functional delta (compound and p110δ D910A mice)
murine model of asthma = conditions: mouse, in vivo

SMILES	efficacy in a mouse model of rheumatoid arthritis [1]	onset of disease in a model of systemic lupus erythematosis [2]	inhibition of p110δ (p110δ)	activity against any protein kinases tested (protein kinases)	passive cutaneous anaphylaxis (PCA) [3]	inflammation and disease in ovalbumin-induced airway inflammation (murine model of asthma)
O=C1NC(=O)/C(=C\c2ccc3nccnc3c2)S1 [AS 605240]	efficacious	delay onset of disease				
Cc1ccccc1-n1c(Cn2cnc3c(N)ncnc32)nc2cccc(C)c2c1=O [IC87114]			high nanomolar range (triple digit)	no activity	significantly reduced	significantly ameliorate inflammation and disease
